Test results as given in ChEMBL document CHEMBL3608207, “Synthesis, characterization, evaluation and molecular dynamics studies of 5, 6-diphenyl-1,2,4-triazin-3(2H)-one derivatives bearing 5-substituted 1,3,4-oxadiazole as potential anti-inflammatory and analgesic agents” (Eur J Med Chem, 2015).

Key:
Rattus norvegicus [1] = test: Anti-inflammatory activity in rat assessed as inhibition of arachidonic acid-induced paw edema at 10 mg/kg, po dosed 30 mins before arachidonic acid injection and measured 1 hr after arachidonic acid injection; type: functional
[2] = Octanol/water partition coefficient, log P of the compound by shake flask method; type: physicochemical
[3] = In-vitro anti-inflammatory activity assessed as inhibition of denaturation of bovine serum albumin at equimolar dose relative to 10 mg indomethacin; type: functional
[4] = Retardation factor of the compound; type: physicochemical
Rattus norvegicus [5] = test: Anti-inflammatory activity in rat model of acute inflammation assessed as inhibition of carrageenan-induced paw oedema dosed at equimolar oral dose relative to 10 mg/kg, po indomethacin dosed 1 hr before carrageenan injection and measured 5 hrs after carrageenan injection relative to 10 mg/kg, po indomethacin; type: functional
Rattus norvegicus [6] = test: Toxicity in healthy albino rat assessed as induction of convulsion up to 500 mg/kg, po; type: organism-based; conditions: in vivo
Rattus norvegicus [7] = test: Toxicity in healthy albino rat assessed as induction of coma up to 500 mg/kg, po; type: organism-based; conditions: in vivo
Rattus norvegicus [8] = test: Anti-inflammatory activity in rat model of acute inflammation assessed as inhibition of carrageenan-induced paw oedema dosed at equimolar oral dose relative to 10 mg/kg, po indomethacin dosed 1 hr before carrageenan injection and measured 6 hrs after carrageenan injection; type: functional
Rattus norvegicus [9] = test: Anti-inflammatory activity in rat model of acute inflammation assessed as inhibition of carrageenan-induced paw oedema dosed at equimolar oral dose relative to 10 mg/kg, po indomethacin dosed 1 hr before carrageenan injection and measured 2 hrs after carrageenan injection; type: functional
Rattus norvegicus [10] = test: Anti-inflammatory activity in rat model of acute inflammation assessed as inhibition of carrageenan-induced paw oedema dosed at equimolar oral dose relative to 10 mg/kg, po indomethacin dosed 1 hr before carrageenan injection and measured 1 hr after carrageenan injection; type: functional
Rattus norvegicus [11] = test: Toxicity in healthy albino rat assessed as induction of changes in autonomic or behavioural responses up to 500 mg/kg, po; type: organism-based; conditions: in vivo
Rattus norvegicus [12] = test: Toxicity in healthy albino rat assessed as induction of lethargy up to 500 mg/kg, po; type: organism-based; conditions: in vivo
Rattus norvegicus [13] = test: Toxicity in healthy albino rat assessed as induction of tremors up to 500 mg/kg, po; type: organism-based; conditions: in vivo
Rattus norvegicus [14] = test: Toxicity in healthy albino rat assessed as induction of diarrhoea up to 500 mg/kg, po; type: organism-based; conditions: in vivo
Rattus norvegicus [15] = test: Toxicity in healthy albino rat assessed as induction of salivation up to 500 mg/kg, po; type: organism-based; conditions: in vivo
Rattus norvegicus [16] = test: Anti-inflammatory activity in rat model of acute inflammation assessed as inhibition of carrageenan-induced paw oedema dosed at equimolar oral dose relative to 10 mg/kg, po indomethacin dosed 1 hr before carrageenan injection and measured 5 hrs after carrageenan injection; type: functional
Rattus norvegicus [17] = test: Anti-inflammatory activity in rat model of acute inflammation assessed as inhibition of carrageenan-induced paw oedema dosed at equimolar oral dose relative to 10 mg/kg, po indomethacin dosed 1 hr before carrageenan injection and measured 4 hrs after carrageenan injection; type: functional
Rattus norvegicus [18] = test: Toxicity in healthy albino rat assessed as induction of mortality at 500 mg/kg, po measured after 14 days; type: organism-based; conditions: in vivo, 336 h
Rattus norvegicus [19] = test: Toxicity in healthy albino rat assessed as induction of sleep up to 500 mg/kg, po; type: organism-based; conditions: in vivo
Rattus norvegicus [20] = test: Anti-inflammatory activity in rat model of acute inflammation assessed as inhibition of carrageenan-induced paw oedema dosed at equimolar oral dose relative to 10 mg/kg, po indomethacin dosed 1 hr before carrageenan injection and measured 3 hrs after carrageenan injection; type: functional
Mus musculus [21] = test: Analgesic activity in Swiss albino mouse assessed as reduction in formalin-induced paw licking by measuring time spent on licking during phase-1 at 10 mg/kg, po dosed 1 hr before formalin challenge and measured 30 mins after formalin injection; type: functional
Mus musculus [22] = test: Analgesic activity in Swiss albino mouse assessed as reduction in formalin-induced paw licking by measuring time spent on licking during phase-2 at 10 mg/kg, po dosed 1 hr before formalin challenge and measured 30 mins after formalin injection; type: functional

Molecule `CC(c1cc2ccccc2s1)N(O)C(N)=O` (centres undefined) [ZILEUTON] has an inhibition in vivo at 10 mg/kg (Rattus norvegicus [1]) of 67.4%.
In the case of `COc1cccc(-c2nnc(Cn3nc(-c4ccccc4)c(-c4ccccc4)nc3=O)o2)c1`, the logP [2] is reported as 3.47, the inhibition [3] is reported as 62.7% and the Rf [4] is reported as 0.38.
In the case of `NNC(=O)Cn1nc(-c2ccccc2)c(-c2ccccc2)nc1=O`, the inhibition [3] is reported as 38.3%.
For `O=c1nc(-c2ccccc2)c(-c2ccccc2)nn1Cc1nnc(Oc2ccc(Cl)cc2Cl)o1`, the logP [2] was 4.4, the “inhibition (INH)” value (Rattus norvegicus [5]) was 75.25% and the Activity (Rattus norvegicus [6]) was “Non-toxic”. For the same molecule, the Activity (Rattus norvegicus [7]) was “Non-toxic”, the “inhibition (INH)” value (Rattus norvegicus [8]) was 44.89% and the “inhibition (INH)” value (Rattus norvegicus [9]) was 34.87%. The inhibition [3] was 72.7%, the “inhibition (INH)” value (Rattus norvegicus [10]) was 15.59% and the Activity (Rattus norvegicus [11]) was “Non-toxic”. For the same molecule, the Activity (Rattus norvegicus [12]) was “Non-toxic”, the Activity (Rattus norvegicus [13]) was “Non-toxic” and the Activity (Rattus norvegicus [14]) was “Non-toxic”. For the same molecule, the Activity (Rattus norvegicus [15]) was “Non-toxic”, the “inhibition (INH)” value (Rattus norvegicus [16]) was 47.14% and the Rf [4] was 0.47. For the same molecule, the “inhibition (INH)” value (Rattus norvegicus [17]) was 45.24%, the Activity (Rattus norvegicus [18]) was “Non-toxic” and the Activity (Rattus norvegicus [19]) was “Non-toxic”. The “inhibition (INH)” value (Rattus norvegicus [20]) was 42.02%.
In the case of `Oc1nnc(-c2ccccc2)c(-c2ccccc2)n1`, the inhibition [3] is reported as 30.7%.
In the case of `N#Cc1cccc(-c2nnc(Cn3nc(-c4ccccc4)c(-c4ccccc4)nc3=O)o2)c1`, the logP [2] is reported as 3.74, the inhibition [3] is reported as 62.3% and the Rf [4] is reported as 0.45.
For `Cc1ccccc1-c1nnc(Cn2nc(-c3ccccc3)c(-c3ccccc3)nc2=O)o1`, the logP [2] was 3.81, the inhibition [3] was 53.7% and the Rf [4] was 0.36.
With `O=c1nc(-c2ccccc2)c(-c2ccccc2)nn1Cc1nnc(-c2ccc(Cl)cc2Cl)o1` the logP [2] was 4.45, the “inhibition (INH)” value (Rattus norvegicus [5]) was 61.16% and the Activity (Rattus norvegicus [6]) was “Non-toxic”. The Activity (Rattus norvegicus [7]) was “Non-toxic”, the “inhibition (INH)” value (Rattus norvegicus [8]) was 35.42% and the “inhibition (INH)” value (Rattus norvegicus [9]) was 28.44%. The inhibition [3] was 67.7%, the “inhibition (INH)” value (Rattus norvegicus [10]) was 12.01% and the Activity (Rattus norvegicus [11]) was “Non-toxic”. For the same molecule, the Activity (Rattus norvegicus [12]) was “Non-toxic”, the Activity (Rattus norvegicus [13]) was “Non-toxic” and the Activity (Rattus norvegicus [14]) was “Non-toxic”. For the same molecule, the Activity (Rattus norvegicus [15]) was “Non-toxic”, the “inhibition (INH)” value (Rattus norvegicus [16]) was 38.31% and the Rf [4] was 0.51. For the same molecule, the “inhibition (INH)” value (Rattus norvegicus [17]) was 34.8%, the Activity (Rattus norvegicus [18]) was “Non-toxic” and the Activity (Rattus norvegicus [19]) was “Non-toxic”. The “inhibition (INH)” value (Rattus norvegicus [20]) was 31.23%.
For `O=c1nc(-c2ccccc2)c(-c2ccccc2)nn1Cc1nnc(-c2ccncc2)o1`, the logP [2] was 3.67, the inhibition [3] was 47.9% and the Rf [4] was 0.43.
For `O=c1nc(-c2ccccc2)c(-c2ccccc2)nn1Cc1nnc(-c2cccc(Cl)c2)o1`, the logP [2] was 3.82, the inhibition [3] was 64.4% and the Rf [4] was 0.45.
With `O=c1nc(-c2ccccc2)c(-c2ccccc2)nn1Cc1nnc(-c2ccccc2[N+](=O)[O-])o1` the logP [2] was 3.64, the “inhibition (INH)” value (Rattus norvegicus [5]) was 65.92% and the Activity (Rattus norvegicus [6]) was “Non-toxic”. The Activity (Rattus norvegicus [7]) was “Non-toxic”, the “inhibition (INH)” value (Rattus norvegicus [8]) was 39% and the “inhibition (INH)” value (Rattus norvegicus [9]) was 30.7%. The inhibition [3] was 70.1%, the “inhibition (INH)” value (Rattus norvegicus [10]) was 12.12% and the Activity (Rattus norvegicus [11]) was “Non-toxic”. For the same molecule, the Activity (Rattus norvegicus [12]) was “Non-toxic”, the Activity (Rattus norvegicus [13]) was “Non-toxic” and the Activity (Rattus norvegicus [14]) was “Non-toxic”. The Activity (Rattus norvegicus [15]) was “Non-toxic”, the “inhibition (INH)” value (Rattus norvegicus [16]) was 41.29% and the Rf [4] was 0.35. For the same molecule, the “inhibition (INH)” value (Rattus norvegicus [17]) was 38.75%, the Activity (Rattus norvegicus [18]) was “Non-toxic” and the Activity (Rattus norvegicus [19]) was “Non-toxic”. For the same molecule, the “inhibition (INH)” value (Rattus norvegicus [20]) was 36.39%.
`CC(C)=CCN1CC[C@]2(C)c3cc(O)ccc3C[C@H]1[C@H]2C` [(+)-PENTAZOCINE] gave an inhibition in vivo at 10 mg/kg (Mus musculus [21]) of 88.9% and an inhibition in vivo at 10 mg/kg (Mus musculus [22]) of 90.2%.
With `Cc1ccc(-c2nnc(Cn3nc(-c4ccccc4)c(-c4ccccc4)nc3=O)o2)cc1` the logP [2] was 3.73, the inhibition [3] was 50.3% and the Rf [4] was 0.34.
In the case of `CCOC(=O)Cn1nc(-c2ccccc2)c(-c2ccccc2)nc1=O`, the inhibition [3] is reported as 35.7%.
Work on `O=c1nc(-c2ccccc2)c(-c2ccccc2)nn1Cc1nnc(-c2ccccc2)o1` yielded a logP [2] of 3.54, an inhibition [3] of 50.3% and a Rf [4] of 0.4.
